These results are taken from patent US12441754B2, “Galactoside inhibitor of galectins” (GALECTO BIOTECH AB, priority 2019, dated 2025).

Molecules are shown by their SMILES. Bounds are passed on as bounds.

The target in test [1] is Galectin-1 (Homo sapiens, UniProt P09382). The experiment in a line: fluorescence anisotropy assay, compound as inhibitor of galectin / fluorescein tagged saccharide probe interaction. Format: binding. An excerpt:
(§1) Anal. Biochem. 334: 36-47, (Sörme et al., 2004) and Monovalent interactions of Galectin-1 By Salomonsson, Emma; Larumbe, Amaia; Tejler, Johan; Tullberg, Erik; Rydberg, Hanna; Sundin, Anders; Khabut, Areej; Frejd, Torbjorn; Lobsanov, Yuri D.; Rini, James M.; et al, From Biochemistry (2010), 49(44), 9518-9532, (Salomonsson et al., 2010).

Test [2] has as its target Galectin-3 (Homo sapiens, UniProt P17931). The description is as above. Format: binding.
Text: as §1

Sequence of Galectin-1 (P09382 whole entry): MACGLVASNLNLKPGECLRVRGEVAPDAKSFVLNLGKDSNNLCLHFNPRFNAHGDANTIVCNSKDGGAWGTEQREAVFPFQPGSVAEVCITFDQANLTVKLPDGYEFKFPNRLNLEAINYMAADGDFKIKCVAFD
Sequence of Galectin-3 (P17931 whole entry): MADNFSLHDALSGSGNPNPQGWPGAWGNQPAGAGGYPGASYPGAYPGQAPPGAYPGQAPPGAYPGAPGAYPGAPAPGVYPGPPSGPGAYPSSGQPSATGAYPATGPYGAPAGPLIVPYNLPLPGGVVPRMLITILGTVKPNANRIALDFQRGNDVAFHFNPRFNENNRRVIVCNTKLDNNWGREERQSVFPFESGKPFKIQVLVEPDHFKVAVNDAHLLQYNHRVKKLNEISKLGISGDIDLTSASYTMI

In the case of `CO[C@@H]1[C@@H](n2cc(-c3nc(C)cs3)nn2)[C@@H](O)[C@@H](CO)O[C@@H]1Sc1cc(Cl)cnc1-c1ccccn1` [Example 46, 5-Chloro-2-(pyridin-2-yl)pyridin-3-yl 3-deoxy-3-[4-(4-methylthiazol-2-yl)-1H-1,2,3-triazol-1-yl]-2-O-methyl-1-thio-α-D-galactopyranoside], the Kd in test [1] worked out at 35 nM; in test [2], 2530 nM.
For `CO[C@@H]1[C@@H](n2cc(-c3nc(Cl)cs3)nn2)[C@@H](O)[C@@H](CO)O[C@@H]1Sc1cncc(SC)c1` [Example 102, 5-Methylsulfanylpyridin-3-yl 3-[4-(4-chlorothiazol-2-yl)-1H-1,2,3-triazol-1-yl]-3-deoxy-2-O-methyl-1-thio-α-D-galactopyranoside], in that order: 190 nM and 420 nM.
For the compound `OC[C@H]1O[C@H](Sc2cc(Cl)cnc2-c2ncc[nH]2)[C@H](O)[C@@H](n2cc(-c3csc(O)n3)nn2)[C@H]1O` [Example 75, 5-Chloro-2-(1H-imidazol-2-yl)pyridin-3-yl 3-deoxy-3-[4-(2-hydroxythiazol-4-yl)-1H-1,2,3-triazol-1-yl]-1-thio-α-D-galactopyranoside], the figures for the Kd in test [1] and in test [2] were 130 nM and 7700 nM, respectively.
For `CO[C@@H]1[C@@H](n2cc(-c3nccs3)nn2)[C@@H](O)[C@@H](CO)O[C@@H]1Sc1cc(Br)ccc1C#N` [Example 56, 5-Bromo-2-cyanophenyl 3-deoxy-2-O-methyl-3-[4-(2-thiazolyl)-1H-1,2,3-triazol-1-yl]-1-thio-α-D-galactopyranoside], in that order: 96 nM and 2100 nM.
For `CO[C@@H]1[C@@H](n2cc(-c3nc(Cl)cs3)nn2)[C@@H](O)[C@@H](CO)O[C@@H]1Sc1ccc2ncsc2c1` [Example 97, 1,3-Benzothiazol-6-yl 3-[4-(4-chlorothiazol-2-yl)-1H-1,2,3-triazol-1-yl]-3-deoxy-2-O-methyl-1-thio-α-D-galactopyranoside], in that order: 83 nM and 320 nM.
In the case of `CO[C@@H]1[C@@H](n2cc(-c3csc(N)n3)nn2)[C@@H](O)[C@@H](CO)O[C@@H]1Sc1cc(Cl)ccc1C#N` [Example 73, 5-Chloro-2-cyanophenyl 3-[4-(2-aminothiazol-4-yl)-1H-1,2,3-triazol-1-yl]-3-deoxy-2-O-methyl-1-thio-α-D-galactopyranoside], the Kd was determined as 56 nM in test [1] and 3200 nM in test [2].
Turning to `CO[C@@H]1[C@@H](n2cc(-c3csc(N)n3)nn2)[C@@H](O)[C@@H](CO)O[C@@H]1Sc1cc(Cl)cnc1-c1cncnc1` [Example 21, 5-Chloro-2-(pyrimidin-5-yl)pyridin-3-yl 3-[4-(2-aminothiazol-4-yl)-1H-1,2,3-triazol-1-yl]-3-deoxy-2-O-methyl-1-thio-α-D-galactopyranoside], the Kd is 45 nM in test [1] and 2300 nM in test [2].
`CO[C@@H]1[C@@H](n2cc(-c3nccs3)nn2)[C@@H](O)[C@@H](CO)O[C@@H]1Sc1cc(Cl)ccc1F` [Example 68, 5-Chloro-2-fluorophenyl 3-deoxy-2-O-methyl-3-[4-(2-thiazolyl)-1H-1,2,3-triazol-1-yl]-1-thio-α-D-galactopyranoside]: the Kd in test [1] worked out at 250 nM; in test [2], 4400 nM.
On to `CO[C@@H]1[C@@H](n2cc(-c3nc(Cl)cs3)nn2)[C@@H](O)[C@@H](CO)O[C@@H]1Sc1cc2scnc2cc1C#N` [Example 100, 5-Cyano-1,3-benzothiazol-6-yl 3-[4-(4-chlorothiazol-2-yl)-1H-1,2,3-triazol-1-yl]-3-deoxy-2-O-methyl-1-thio-α-D-galactopyranoside], for which the Kd in test [1] was found to be 32 nM; in test [2], 180 nM.
`CO[C@@H]1[C@@H](n2cc(-c3nc(C)cs3)nn2)[C@@H](O)[C@@H](CO)O[C@@H]1Sc1cc(C)cnc1C#N` [Example 35, 2-Cyano-5-methylpyridin-3-yl 3-deoxy-3-[4-(4-methylthiazol-2-yl)-1H-1,2,3-triazol-1-yl]-2-O-methyl-1-thio-α-D-galactopyranoside]: the Kd in test [1] was found to be 490 nM; in test [2], 9000 nM.
Regarding `N#Cc1ccc(Cl)cc1S[C@H]1O[C@H](CO)[C@H](O)[C@H](n2cc(-c3nc(Cl)cs3)nn2)[C@H]1O` [Example 50, 5-Chloro-2-cyanophenyl 3-[4-(4-chlorothiazol-2-yl)-1H-1,2,3-triazol-1-yl]-3-deoxy-1-thio-α-D-galactopyranoside], the Kd in test [1] was 110 nM; in test [2], 230 nM.
For `CO[C@@H]1[C@@H](n2cc(-c3nc(Cl)c(Cl)s3)nn2)[C@@H](O)[C@@H](CO)O[C@@H]1Sc1cc(Br)cnc1C#N` [Example 55, 5-Bromo-2-cyanopyridin-3-yl 3-[4-(4,5-dichlorothiazol-2-yl)-1H-1,2,3-triazol-1-yl]-3-deoxy-2-O-methyl-1-thio-α-D-galactopyranoside], in that order: 150 nM and 28 nM.
Taken in the same sequence, the figures for `Cc1sc(N)nc1-c1cn(C2C(O)[C@@H](Sc3cnc(C(F)(F)F)c(Br)c3)OC(CO)[C@@H]2O)nn1` (stereo partly drawn) [Example 33] were 500 nM and 3000 nM.
For `CO[C@@H]1[C@@H](n2cc(-c3nc(Cl)cs3)nn2)[C@@H](O)[C@@H](CO)O[C@@H]1Sc1cc(Br)cnc1C#N` [Example 11, 5-Bromo-2-cyanopyridin-3-yl 3-[4-(4-chlorothiazol-2-yl)-1H-1,2,3-triazol-1-yl]-3-deoxy-2-O-methyl-1-thio-α-D-galactopyranoside], in that order: 19 nM and 170 nM.
With `CO[C@@H]1[C@@H](n2cc(-c3nc(Cl)cs3)nn2)[C@@H](O)[C@@H](CO)O[C@@H]1Sc1cncc(SC(F)(F)F)c1` [Example 103, 5-(Trifluoromethylsulfanyl)pyridin-3-yl 3-[4-(4-chlorothiazol-2-yl)-1H-1,2,3-triazol-1-yl]-3-deoxy-2-O-methyl-1-thio-α-D-galactopyranoside], the Kd in test [1] came to 330 nM; in test [2] it was 1000 nM.
Taken in the same sequence, the figures for `N#Cc1ccc(S[C@@H]2C[C@@H](n3cc(-c4csc(N)n4)nn3)[C@@H](O)[C@@H](CO)O2)cc1Cl` [Example 42, 3-Chloro-4-cyanophenyl 3-[4-(2-aminothiazol-4-yl)-1H-1,2,3-triazol-1-yl]-2,3-dideoxy-1-thio-α-D-galactopyranoside] were 730 nM and 10300 nM.
Taken in the same sequence, the figures for `N#Cc1ncc(Cl)cc1S[C@H]1O[C@H](CO)[C@H](O)[C@H](n2cc(-c3csc(Cl)n3)nn2)[C@H]1O` [Example 70, 5-Chloro-2-cyanopyridin-3-yl 3-[4-(2-chlorothiazol-4-yl)-1H-1,2,3-triazol-1-yl]-3-deoxy-1-thio-α-D-galactopyranoside] were 330 nM and 420 nM.
`COC1C(n2cc(-c3csc(N)n3)nn2)[C@@H](O)C(CO)O[C@@H]1Sc1cc(Cl)cnc1N1CC2(COC2)C1` (stereo partly drawn) [Example 38, 5-Chloro-2-{N-(2-oxa)-6-azaspiro[3.3]heptanyl}-pyridin-3-yl 3-[4-(2-aminothiazol-4-yl)-1H-1,2,3-triazol-1-yl]-3-deoxy-2-O-methyl-1-thio-α-D-galactopyranoside]: the Kd in test [1] is 100 nM; in test [2], 6100 nM.
As to `CC(C)O[C@@H]1[C@@H](n2cc(-c3csc(O)n3)nn2)[C@@H](O)[C@@H](CO)O[C@@H]1Sc1ccc(Cl)c(Cl)c1` [Example 8, 3,4-Dichlorophenyl 3-deoxy-3-[4-(2-hydroxythiazol-4-yl)-1H-1,2,3-triazol-1-yl]-2-O-isopropyl-1-thio-α-D-galactopyranoside], the Kd in test [1] is 100 nM; in test [2], above 100000 nM.
Taken in the same sequence, the figures for `CCO[C@@H]1[C@@H](n2cc(-c3nc(Cl)cs3)nn2)[C@@H](O)[C@@H](CO)O[C@@H]1Sc1cc(Cl)cnc1C(=O)NC` [Example 95, 5-Chloro-2-(N-methylcarbamoyl)pyridin-3-yl 3-[4-(4-chlorothiazol-2-yl)-1H-1,2,3-triazol-1-yl]-3-deoxy-2-O-ethyl-1-thio-α-D-galactopyranoside] were 8 nM and 93 nM.
For `CO[C@@H]1[C@@H](n2cc(-c3csc(N)n3)nn2)[C@@H](O)[C@@H](CO)O[C@@H]1Sc1cc(Cl)cnc1-c1ccncc1` [Example 22, 5-Chloro-2-(pyridin-4-yl)pyridin-3-yl 3-[4-(2-aminothiazol-4-yl)-1H-1,2,3-triazol-1-yl]-3-deoxy-2-O-methyl-1-thio-α-D-galactopyranoside], in that order: 26 nM and 4100 nM.
Taken in the same sequence, the figures for `N#Cc1ncc(Cl)cc1S[C@H]1O[C@H](CO)[C@H](O)[C@H](n2cc(-c3nccs3)nn2)[C@H]1OCc1cc(F)c(O)c(F)c1` [Example 6, 5-Chloro-2-cyanopyridin-3-yl 3-deoxy-2-O-(3,5-difluoro-4-hydroxybenzyl)-3-[4-(2-thiazolyl)-1H-1,2,3-triazol-1-yl]-1-thio-α-D-galactopyranoside] were 96 nM and 950 nM.
For the compound `CO[C@@H]1[C@@H](n2cc(-c3csc(N)n3)nn2)[C@@H](O)[C@@H](CO)O[C@@H]1Sc1cc(Cl)cnc1-c1nccs1` [Example 29, 5-Chloro-2-(thiazol-2-yl)pyridin-3-yl 3-[4-(2-aminothiazol-4-yl)-1H-1,2,3-triazol-1-yl]-3-deoxy-2-O-methyl-1-thio-α-D-galactopyranoside], the Kd came out at 48 nM in test [1] and 8700 nM in test [2].
Taken in the same sequence, the figures for `CO[C@@H]1[C@@H](n2cc(-c3nc(Cl)cs3)nn2)[C@@H](O)[C@@H](CO)O[C@@H]1Sc1cc(Cl)cnc1C#N` [Example 13, 5-Chloro-2-cyanopyridin-3-yl 3-[4-(4-chlorothiazol-2-yl)-1H-1,2,3-triazol-1-yl]-3-deoxy-2-O-methyl-1-thio-α-D-galactopyranoside] were 25 nM and 160 nM.
